Source: patent US20180327367A1, “MACROCYCLIC BROAD SPECTRUM ANTIBIOTICS” (priority 2015, published 2018)
Converted amounts (≈) assume the structure as drawn. Read-outs that look alike come from different tables or passages of the source.

How the values were obtained:
Type in all cases: cell-based
[1] = system: Escherichia coli ATCC 25922; experiment: Minimum inhibitory concentration, broth micro-dilution (CLSI), E. coli; conditions: Escherichia coli, ATCC25922, 22 h
Method: Cells were inoculated onto plates of Trypyticase Soy Agar or Luria Agar respectively and grown at 35° C. for 20 hours. Inocula suspensions were prepared by scraping cells into 1 mL of testing media (cation adjusted Mueller Hinton Broth supplemented with 0.002% v/v Tween-80) and diluting to a final OD600 nm of 0.01.
(§1) Test compounds were prepared in DMSO at a concentration of 10 mg/mL. […] In protocol 2, the compound stocks were diluted into testing media at a concentration of 4 μg/mL and serial 2-fold dilutions were made in the same media, in 96-well U bottom microtiter dishes, for a total of 10 compound concentrations. In protocol 3, compound stocks were diluted into testing media at a concentration of 0.5 μg/mL, with serial 2-fold dilutions conducted as described above. […] Inocula suspensions were added to the 2-fold serial dilutions of test compounds to a final density of OD OD600 nm of 0.0005 and incubated at 35° C. for 22 hours.

[2] = system: Methicillin Resistant Staphylococcus aureus strain USA 300, NRS384; experiment: Minimum inhibitory concentration, broth micro-dilution (CLSI), S. aureus; conditions: Staphylococcus aureus, MRSA / NRS 384 / USA300, 22 h
Method: (§2) In vitro antimicrobial activity of each compound was determined by measuring minimal inhibitor concentrations (MICs) using the broth micro-dilution technique as approved by the Clinical and Laboratory Standards Institute (CLSI) (Methods for Dilution Antimicrobial Susceptibility Tests for Bacteria that Grow Aerobically; Approved Standard—Eighth Edition. CLSI document M07-A8. Wayne, Pa.: Clinical and Laboratory Standards; 2009). Antibacterial activity was measure against three strains of bacteria: a Methicillin Resistant Staphylococcus aureus strain USA 300, NRS384 (S. aureus); a strain of Escherichia coli MC4100 harboring the IMP4213 (E. coli IMP), which results in increased outer-membrane permeability (B Martin and Silhavy T. Imp/OstA is required for cell envelope biogenesis in Escherichia coli. (2002) Molecular Microbiology, 45(5), 1289-1302), and Escherichia coli ATCC 25922 (E. coli), a clinically relevant Gram-negative strain. Cells were inoculated onto plates of Trypyticase Soy Agar or Luria Agar respectively and grown at 35° C. for 20 hours. Inocula suspensions were prepared by scraping cells into 1 mL of testing media (cation adjusted Mueller Hinton Broth supplemented with 0.002% v/v Tween-80) and diluting to a final OD600 nm of 0.01.
as §1

[3] = system: Escherichia coli MC4100 harboring the IMP4213 (E. coli IMP); experiment: microbe, parasite or virus in culture; conditions: Escherichia coli, 22 h
Method: as §2, §1

[4] = read-out: MIC (μg/mL) E. coli, E. coli ATCC 25922, 35° C., 22 hours
[5] = read-out: MIC (μg/mL) S. aureus, MRSA USA 300 NRS384, 35° C., 22 hours
[6] = read-out: MIC (μg/mL) E. coli IMP, E. coli MC4100 IMP4213, increased outer-membrane permeability, 35° C., 22 hours
[7] = E. coli ATCC 25922, 35° C., 22 hours, read-out: MIC (μg/mL) E. coli
[8] = MRSA USA 300 NRS384, 35° C., 22 hours, read-out: MIC (μg/mL) S. aureus
[9] = read-out: MIC (μg/mL) S. aureus
[10] = read-out: MIC (μg/mL) E. coli IMP

SMILES	MIC [1, 4] [µg/mL]	MIC [2, 5] [µg/mL]	MIC [3, 6] [µg/mL]	MIC [1, 7] [µg/mL]	MIC [2, 8] [µg/mL]	MIC ([1]; read-out: MIC (μg/mL) E. coli) [µg/mL]	MIC [2, 9] [µg/mL]	MIC [3, 10] [µg/mL]
CCCCCCCCCC(=O)N[C@H](C(=O)N[C@@H](CCN)C(=O)N(C)[C@@H]1C(=O)N[C@@H](C)C(=O)N[C@H](C(=O)NCC#N)Cc2ccc(OCCN)c(c2)-c2cc1ccc2OCCN)[C@@H](C)O [Compound 356]	12 (≈ 13.4 µM)	0.094 (≈ 0.105 µM)	0.13 (≈ 0.146 µM)	–	–	–	–	–
CCCCCCCCCC(=O)N[C@H](CO)C(=O)N[C@@H](CCN)C(=O)N(C)[C@@H]1C(=O)N[C@@H](C)C(=O)N[C@H](C(=O)NCC#N)Cc2ccc(OCCN)c(c2)-c2cc1ccc2OCCN [Compound 359]	16 (≈ 18.2 µM)	0.063 (≈ 0.0717 µM)	0.13 (≈ 0.148 µM)	–	–	–	–	–
CCCCCCCCCNC(=O)CC(=O)N[C@@H](CCN)C(=O)N(C)[C@@H]1C(=O)N[C@@H](C)C(=O)N[C@H](C(=O)NCC#N)Cc2ccc(OCCN)c(c2)-c2cc1ccc2OCCN [Compound 361]	–	–	0.13 (≈ 0.153 µM)	16 (≈ 18.8 µM)	0.13 (≈ 0.153 µM)	–	–	–
CCCCCCCCCC(=O)NCC(=O)NCC(=O)N[C@@H](CCN)C(=O)N(C)[C@@H]1C(=O)N[C@@H](C)C(=O)N[C@H](C(=O)NCC#N)Cc2ccc(OCCN)c(c2)-c2cc1ccc2OCCN [Compound 362]	32 (≈ 35.3 µM)	0.25 (≈ 0.276 µM)	0.5 (≈ 0.552 µM)	–	–	–	–	–
CCCCCCCCCC(=O)N[C@@H](C)C(=O)NCC(=O)N[C@@H](CCN)C(=O)N(C)[C@@H]1C(=O)N[C@@H](C)C(=O)N[C@H](C(=O)NCC#N)Cc2ccc(OCCN)c(c2)-c2cc1ccc2OCCN [Compound 363]	64 (≈ 69.6 µM)	0.25 (≈ 0.272 µM)	0.5 (≈ 0.543 µM)	–	–	–	–	–
CCCCCCCCCC(=O)N[C@@H](C)C(=O)NCCC(=O)N[C@@H](CCN)C(=O)N(C)[C@@H]1C(=O)N[C@@H](C)C(=O)N[C@H](C(=O)NCC#N)Cc2ccc(OCCN)c(c2)-c2cc1ccc2OCCN [Compound 364]	–	–	0.75 (≈ 0.803 µM)	48 (≈ 51.4 µM)	0.38 (≈ 0.407 µM)	–	–	–
CCCCCCCCCC(=O)N[C@H](C)C(=O)NCCC(=O)N[C@@H](CCN)C(=O)N(C)[C@@H]1C(=O)N[C@@H](C)C(=O)N[C@H](C(=O)NCC#N)Cc2ccc(OCCN)c(c2)-c2cc1ccc2OCCN [Compound 365]	–	–	0.5 (≈ 0.535 µM)	64 (≈ 68.5 µM)	0.38 (≈ 0.407 µM)	–	–	–
CCCCCCCCCC(=O)NCCC(=O)NCC(=O)N[C@@H](CCN)C(=O)N(C)[C@@H]1C(=O)N[C@@H](C)C(=O)N[C@H](C(=O)NCC#N)Cc2ccc(OCCN)c(c2)-c2cc1ccc2OCCN [Compound 368]	64 (≈ 69.6 µM)	0.25 (≈ 0.272 µM)	1 (≈ 1.09 µM)	–	–	–	–	–
CCCCCCCCCC(=O)N[C@H](C)C(=O)N[C@@H](CCN)C(=O)N(C)[C@@H]1C(=O)N[C@@H](C)C(=O)N[C@H](C(=O)NCC#N)Cc2ccc(OCCN)c(c2)-c2cc1ccc2OCCN [Compound 374]	16 (≈ 18.5 µM)	0.19 (≈ 0.22 µM)	0.13 (≈ 0.151 µM)	–	–	–	–	–
CCCCCCCCCC(=O)NCCC(=O)NCCC(=O)N[C@@H](CCN)C(=O)N(C)[C@@H]1C(=O)N[C@@H](C)C(=O)N[C@H](C(=O)NCC#N)Cc2ccc(OCCN)c(c2)-c2cc1ccc2OCCN [Compound 376]	–	–	2.3 (≈ 2.46 µM)	> 64	0.5 (≈ 0.535 µM)	–	–	–
CCCCc1ccc(C(=O)N[C@@H](CCN)C(=O)N[C@@H](C)C(=O)N(C)[C@@H]2C(=O)N[C@@H](C)C(=O)N[C@H](C(=O)NCC#N)Cc3ccc(OCCN)c(c3)-c3cc2ccc3OCCN)c(C)c1 [Compound 380]	64 (≈ 72.5 µM)	> 4	4 (≈ 4.53 µM)	–	–	–	–	–
CCCCc1ccc(C(=O)N[C@@H](CCO)C(=O)N[C@@H](CCN)C(=O)N(C)[C@@H]2C(=O)N[C@@H](C)C(=O)N[C@H](C(=O)NCC#N)Cc3ccc(OCCN)c(c3)-c3cc2ccc3OCCN)c(C)c1 [Compound 382]	64 (≈ 70.1 µM)	0.5 (≈ 0.548 µM)	0.5 (≈ 0.548 µM)	–	–	–	–	–
CCCCCCCCCC(=O)N[C@@H](CCC(N)=O)C(=O)N[C@@H](CCN)C(=O)N(C)[C@@H]1C(=O)N[C@@H](C)C(=O)N[C@H](C(=O)NCC#N)Cc2ccc(OCCN)c(c2)-c2cc1ccc2OCCN [Compound 385]	32 (≈ 34.8 µM)	0.25 (≈ 0.272 µM)	0.5 (≈ 0.543 µM)	–	–	–	–	–
CCCCCCCCCC(=O)N[C@@H](CCNC(C)=O)C(=O)N[C@@H](CCN)C(=O)N(C)[C@@H]1C(=O)N[C@@H](C)C(=O)N[C@H](C(=O)NCC#N)Cc2ccc(OCCN)c(c2)-c2cc1ccc2OCCN [Compound 386]	64 (≈ 68.5 µM)	0.38 (≈ 0.407 µM)	0.5 (≈ 0.535 µM)	–	–	–	–	–
CCCCCCCCCCCC(=O)N[C@@H](CC(=O)O)C(=O)N[C@@H](CN)C(=O)N(C)[C@@H]1C(=O)N[C@@H](C)C(=O)N[C@H](C(=O)NCC#N)Cc2ccc(OCCN)c(c2)-c2cc1ccc2OCCN [Compound 387]	64 (≈ 69.5 µM)	0.25 (≈ 0.271 µM)	0.38 (≈ 0.413 µM)	–	–	–	–	–
CCCCCCCCCC(=O)N(C)[C@@H](CO)C(=O)N[C@@H](CCN)C(=O)N(C)[C@@H]1C(=O)N[C@@H](C)C(=O)N[C@H](C(=O)NCC#N)Cc2ccc(OCCN)c(c2)-c2cc1ccc2OCCN [Compound 388]	48 (≈ 53.7 µM)	0.25 (≈ 0.28 µM)	0.25 (≈ 0.28 µM)	–	–	–	–	–
CCCCCCCc1ccc(C(=O)N(C)[C@@H](CCN)C(=O)N(C)[C@@H]2C(=O)N[C@@H](C)C(=O)N[C@H](C(=O)NCC#N)Cc3ccc(OCCN)c(c3)-c3cc2ccc3OCCN)cc1 [Compound 396]	–	–	–	–	–	16 (≈ 18.7 µM)	0.094 (≈ 0.11 µM)	0.094 (≈ 0.11 µM)
CCCCc1ccc(C(=O)N(C)[C@@H](CCN)C(=O)N(C)[C@@H]2C(=O)N[C@@H](C)C(=O)N[C@H](C(=O)NCC#N)Cc3ccc(OCCN)c(c3)-c3cc2ccc3OCCN)c(C)c1 [Compound 397]	–	–	0.38 (≈ 0.46 µM)	64 (≈ 77.5 µM)	3 (≈ 3.63 µM)	–	–	–
CCCCCCCCCCCC(=O)N(C)[C@@H](CCN)C(=O)N(C)[C@@H]1C(=O)N[C@@H](C)C(=O)N[C@H](C(=O)NCC#N)Cc2ccc(OCCN)c(c2)-c2cc1ccc2OCCN [Compound 398]	–	–	0.13 (≈ 0.156 µM)	16 (≈ 19.2 µM)	0.13 (≈ 0.156 µM)	–	–	–
CCCCCCCCCC(=O)N[C@@H](CO)C(=O)N(C)[C@@H](CCN)C(=O)N(C)[C@@H]1C(=O)N[C@@H](C)C(=O)N[C@H](C(=O)NCC#N)Cc2ccc(OCCN)c(c2)-c2cc1ccc2OCCN [Compound 399]	16 (≈ 17.9 µM)	0.25 (≈ 0.28 µM)	0.19 (≈ 0.213 µM)	–	–	–	–	–
CCCCCCCCNC(=O)N[C@@H](CCN)C(=O)N(C)[C@@H]1C(=O)N[C@@H](C)C(=O)N[C@H](C(=O)NCC#N)Cc2ccc(OCCN)c(c2)-c2cc1ccc2OCCN [Compound 402]	–	–	0.19 (≈ 0.24 µM)	32 (≈ 40.4 µM)	0.38 (≈ 0.479 µM)	–	–	–
CCCCCCCCc1ccc(C(=O)N[C@@H](CCN)C(=O)N(C)[C@@H]2C(=O)N[C@@H](C)C(=O)N[C@H](C(=O)NCC#N)Cc3ccc(OCCN)c(c3)-c3cc2ccc3OCCN)c(OCC(=O)O)c1 [Compound 409]	–	–	< 0.0039	0.5 (≈ 0.539 µM)	0.25 (≈ 0.269 µM)	–	–	–
CCCCCCCCc1ccc(C(=O)N[C@@H](CCN)C(=O)N(C)[C@@H]2C(=O)N[C@@H](C)C(=O)N[C@H](C(=O)NCC#N)Cc3ccc(OCCN)c(c3)-c3cc2ccc3OCCN)c(OCC(=O)NCC#N)c1 [Compound 410]	–	–	0.13 (≈ 0.135 µM)	6 (≈ 6.21 µM)	0.13 (≈ 0.135 µM)	–	–	–
Cc1cc(-n2cccn2)ccc1C(=O)N[C@@H](CCN)C(=O)N(C)[C@@H]1C(=O)N[C@@H](C)C(=O)N[C@H](C(=O)NCC#N)Cc2ccc(OCCN)c(c2)-c2cc1ccc2OCCN [Compound 411]	–	–	–	–	–	16 (≈ 19.5 µM)	2 (≈ 2.43 µM)	0.5 (≈ 0.608 µM)
CCCCCCCCc1ccc(C(=O)N[C@@H](CCN)C(=O)N(C)[C@@H]2C(=O)N[C@@H](C)C(=O)N[C@H](C(=O)NCC#N)Cc3ccc(OCCN)c(c3)-c3cc2ccc3OCCN)c(/C=C/C(=O)O)c1 [Compound 414]	–	–	–	–	–	64 (≈ 69.3 µM)	0.5 (≈ 0.541 µM)	0.25 (≈ 0.271 µM)
C[C@@H]1NC(=O)[C@@H](N(C)C(=O)[C@H](CCCCN)NC(=O)c2ccc(-c3ccc(Cl)cc3)cc2)c2ccc(O)c(c2)-c2cc(ccc2O)C[C@@H](C(=O)NCC#N)NC1=O [Compound 416]	> 64	0.5 (≈ 0.629 µM)	2 (≈ 2.52 µM)	–	–	–	–	–
C[C@@H]1NC(=O)[C@@H](N(C)C(=O)[C@H](CCCCN)NC(=O)c2ccc(-c3ccc(Cl)cc3)cc2)c2ccc(O)c(c2)-c2cc(ccc2O)C[C@@H](C(=O)N[C@@H](C)C#N)NC1=O [Compound 417]	–	–	4 (≈ 4.95 µM)	> 64	13 (≈ 16.1 µM)	–	–	–
